Like-named read-outs stand apart in the source and are kept apart here.
Columns and labels:
[1] = Solubility of GA in solvents and solvent blends; format: physicochemical
Method: Gibberellic acid (GA) of 92% purity as a dry powder was used in these laboratory studies. The solvents and reagents were of reagent grade purity.
Also, the GA was easier to dissolve in the solvent blends because they were not as viscous as the single solvents. Moreover, the solvent blends had high flash points. A flash point above 140° F. is very desirable because there are less regulatory restrictions on manufacturing, transportation, and storage.

apple trees = experiment: Phytotoxicity of sprayed aqueous solvents, field tests; format: in vivo; settings: sprayed 1 to 2% aqueous solutions; field tests with apple trees
Method: (§1) The potential for phytotoxicity (plant injury) by spraying 1 to 2% aqueous solutions of ethyl lactate and solvent blends with ethyl lactate, as well as other ingredients such as glycerol and soy methyl esters was evaluated in field tests with apple trees and in greenhouse tests with corn, green bean, cucumber, tomato, ryegrass and hosta seedlings.

[2] = system: corn, green bean, cucumber, tomato, ryegrass and hosta seedlings; experiment: Phytotoxicity of sprayed aqueous solvents, greenhouse tests; format: in vivo; settings: sprayed 1 to 2% aqueous solutions; greenhouse tests with seedlings
Method: as §1

dwarf morning glory = settings: cited from earlier work
pea seedlings = settings: cited from earlier work

C=C1C[C@]23C[C@@]1(O)CC[C@H]2[C@@]12C=C[C@H](O)[C@@](C)(C(=O)O1)[C@H]2[C@@H]3C(=O)O [GA, Gibberellic acid]
solubility of GA in the solvent blends compared with ethyl lactate alone ([1]; 80:20 (w/w) ethyl lactate with propylene glycol or glycerol): twice as much
amount of GA dissolved in glycerol ([1]; glycerol alone, solution very viscous and difficult to mix): a small amount
effect of mild heating on dissolution of GA in ethyl lactate ([1]; mild heating to 60° C.): did not increase the dissolution
amount of GA dissolved in propylene glycol ([1]; propylene glycol alone, solution very viscous and difficult to mix): a small amount
solubility of GA in ethyl lactate alone ([1]; room temperature): approximately 2 % (w/w)

CCOC(=O)C(C)O (centres unmarked) [ethyl lactate]
phytotoxicity (plant injury) (apple trees): no evidence of phytotoxicity
phytotoxicity (plant injury) [2]: no evidence of phytotoxicity

gibberellin
effect on flowering (dwarf morning glory; 2 to 20 micrograms): inhibits flowering
effect on flowering (dwarf morning glory; application of 0.02 micrograms): promotes flowering
effect on shoot length (pea seedlings; ten micrograms applied at 3 days old): nearly doubled shoot length
effect on shoot length (pea seedlings; ten micrograms, 9 day old seedlings): barely affected

— patent US20060172890A1, “Liquid formulation of a plant growth regulator” (priority 2004, published 2006)
